From patent publication EP2974721A1, “A PHARMACEUTICAL COMPOSITION COMPRISING A GAS GENERATING INGREDIENT” (Nanomega Medical Corporation, priority 2014, dated 2016)

How the values were obtained:
Caco-2 cell monolayers = test: Epithelial permeability: transmission of FITC-insulin across cell monolayers (fluorescence microscopy); format: cell-based, human; conditions: cells co-cultured with the component; stained for Cld 4, E-cadherin, DAPI; result in words
Description: Cell images of cells bound with nano/micro bubbles.
Enhanced epithelial permeability. Drug permeation may occur across the intestinal epithelium and through either transcellular or paracellular routes. To elucidate the precise mechanisms of interactions between the bubble carrier system and epithelial cells and its subsequent transport of the drug, the effects of DTPA and SDS on epithelial permeability were individually studied using Caco-2 cell monolayers. Monolayers of Caco-2 cells derived from human colorectal adenocarcinoma are widely used in in vitro models for predicting intestinal drug permeability.

intestinal proteases = test: Inhibition of proteolytic degradation of insulin in isolated proximal small intestine (duodenum); format: biochemical; conditions: added to insulin; duodenum freshly isolated from rats; result in words
Description: Inhibition of proteolytic degradation. Inhibiting the proteolytic degradation of insulin in the intestinal fluid and the mucosal layer is critical for increasing its oral bioavailability. The inhibiting effects of DTPA and SDS on intestinal proteases were separately studied in in vitro studies of the proximal portion of the small intestine (i.e., the duodenum) freshly isolated from rats. The various digestive enzymes secreted from the pancreas into the duodenum are well-recognized. […] Insulin is highly sensitive to trypsin and chymotrypsin, which are Ca^2+-dependent enzymes in the intestinal fluid and in the mucosal layer. One strategy for inhibiting intestinal protease activities is using complexing agents such as DTPA to remove essential metal ions (e.g., Ca^2+) from the enzyme structure at vicinity of the bioactive agent. […] Proposed molecular mechanisms of proteolytic inhibition by SDS include local conformational changes or altered charge distributions of the proteases induced by their specific binding of SDS.

SMILES	transmission of FITC-insulin (pathway) (Caco-2 cell monolayers)	protective effect on insulin against the intestinal proteases (intestinal proteases)
O=C(O)CN(CCN1CC(=O)OC(=O)C1)CCN1CC(=O)OC(=O)C1 [DTPA dianhydride, diethylenetriaminepentaacetic dianhydride]	promote transmission of FITC-insulin via paracellular pathway	
O=C(O)CN(CCN(CC(=O)O)CC(=O)O)CCN(CC(=O)O)CC(=O)O [DTPA, diethylene triamine pentaacetic acid]		strong protective effect
CCCCCCCCCCCCOS(=O)(=O)[O-].[Na+] [SDS, sodium dodecyl sulfate]	promote transmission of FITC-insulin via both of paracellular pathway and transcellular pathway	strong protective effect
